# Where “and” joins values, the source holds several entries; their conditions need not be identical. Equal entries are not always repeated. Where two headings read alike, the source gives them in different places.
# Columns and labels:
# CYP1B1 [1] = target: T1, CYP1B1 (Homo sapiens, UniProt Q16678); assay: EROD assay in inducible CYP1B1 cell line; assay type: cell-based
# T1 construct: expressed in transfected cells
# T1 sequence (Q16678 1-543): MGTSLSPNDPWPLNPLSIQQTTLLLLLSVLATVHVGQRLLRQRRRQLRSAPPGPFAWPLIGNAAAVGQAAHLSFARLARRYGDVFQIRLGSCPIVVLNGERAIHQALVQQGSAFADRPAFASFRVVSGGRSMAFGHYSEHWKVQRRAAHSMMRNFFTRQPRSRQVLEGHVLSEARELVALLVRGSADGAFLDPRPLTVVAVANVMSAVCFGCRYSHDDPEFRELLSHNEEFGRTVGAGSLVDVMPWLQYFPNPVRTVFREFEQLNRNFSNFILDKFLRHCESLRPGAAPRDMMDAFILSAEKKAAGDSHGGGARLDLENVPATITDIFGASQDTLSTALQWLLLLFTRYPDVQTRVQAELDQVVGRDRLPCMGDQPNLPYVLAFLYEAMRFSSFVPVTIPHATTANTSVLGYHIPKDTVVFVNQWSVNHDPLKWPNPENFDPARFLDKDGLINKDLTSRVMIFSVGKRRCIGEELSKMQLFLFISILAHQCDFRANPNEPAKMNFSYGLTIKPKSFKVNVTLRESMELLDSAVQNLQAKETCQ
# Method: (§1) The activity of the inhibitors was assessed in a novel cell based assay generated for the purpose of this project. Enzymatic turnover of CYP1B1 was measured using the ethoxy-resorufin-O-deethylase (EROD) assay with the fluorescent substrate, resorufin ethyl ether. Cell lines were generated where the gene for CYP1B1 alone or CYP1B1 and cytochrome P450 reductase (CPR) were both under the control of an inducible promoter. A cell line was generated for counter screening where the gene for CYP1A1 was used. CYP1A1 is the closest family member to CYP1B1.
# CYP1A1 = target: T2, CYP1A1 (Homo sapiens, UniProt P04798); assay: EROD assay in CYP1A1 counter-screen cell line; assay type: cell-based
# T2 construct: expressed in transfected cells
# T2 sequence (P04798 1-512): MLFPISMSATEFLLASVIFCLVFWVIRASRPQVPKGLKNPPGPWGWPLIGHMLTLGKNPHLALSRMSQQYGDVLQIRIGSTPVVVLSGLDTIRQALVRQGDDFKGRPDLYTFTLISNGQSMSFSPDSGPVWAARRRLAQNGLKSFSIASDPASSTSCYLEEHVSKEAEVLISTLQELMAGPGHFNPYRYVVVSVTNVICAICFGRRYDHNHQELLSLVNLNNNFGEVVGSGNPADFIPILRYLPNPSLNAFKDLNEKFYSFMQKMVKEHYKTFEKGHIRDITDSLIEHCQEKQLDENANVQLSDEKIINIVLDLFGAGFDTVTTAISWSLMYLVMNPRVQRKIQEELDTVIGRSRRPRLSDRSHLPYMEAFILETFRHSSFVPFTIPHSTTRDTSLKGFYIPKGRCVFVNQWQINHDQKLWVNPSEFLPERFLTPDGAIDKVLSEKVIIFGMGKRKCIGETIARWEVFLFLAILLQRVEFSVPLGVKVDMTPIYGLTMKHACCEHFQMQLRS
# Method: as §1
# [2] = target: T3, pooled human liver microsomes (pHLMs) (Homo sapiens, UniProt P05177); assay: EROD counterscreen in pooled human liver microsomes; assay type: biochemical; conditions: human, microsomes
# T3 sequence (P05177 2-516): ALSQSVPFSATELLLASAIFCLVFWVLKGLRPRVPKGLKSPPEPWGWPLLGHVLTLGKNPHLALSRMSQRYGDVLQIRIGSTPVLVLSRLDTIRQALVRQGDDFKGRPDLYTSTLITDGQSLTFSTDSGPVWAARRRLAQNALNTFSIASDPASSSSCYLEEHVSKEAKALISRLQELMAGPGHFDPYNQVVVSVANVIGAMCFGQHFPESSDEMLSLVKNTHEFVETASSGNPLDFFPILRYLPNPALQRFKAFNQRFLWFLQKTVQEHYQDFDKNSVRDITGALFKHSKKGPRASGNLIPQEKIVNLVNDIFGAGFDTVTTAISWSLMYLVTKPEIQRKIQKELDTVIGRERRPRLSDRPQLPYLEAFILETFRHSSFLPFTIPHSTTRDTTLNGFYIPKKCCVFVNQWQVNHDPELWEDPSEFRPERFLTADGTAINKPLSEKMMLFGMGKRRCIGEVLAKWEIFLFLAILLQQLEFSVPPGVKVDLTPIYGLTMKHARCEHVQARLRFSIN
# From the text: Human liver microsomes were used as a counterscreen to experimentally determine the magnitude of inhibitor selectivity.
# [3] = Cytotoxicity, resazurin, 72 hours after compound addition; assay type: cell-based; conditions: human, HEK cells; Table 1; 72 hours, resazurin; read-out: Cytotoxicity IC50
# Method: Cytotoxicity was assessed at 72 hours after compound addition using resazurin. The compounds that function as selective 1B1 inhibitors had no effect on cell health. This is an essential feature for any chemopreventative agent or molecules intended to block the detrimental action of an enzyme.
# MCF7 tumor spheroids = assay type: cell-based; conditions: 547 0.5 μM with cisplatin 100 μM; CYP1B1 induced with benzo[a]pyrene
# From the text: 510 is a control compound that lacks a coordinating group. […] All other conditions are following CYP1B1 induction with benzo[a]pyrene. Spheroid shown in inset.
# CYP1B1 [4] = target: T1, CYP1B1; assay: Wash out experiment (FIG. 2B); assay type: cell-based
# From the text: (§2) FIG. 2A includes a dose response of 547 in EROD assay in CYP1B1 cell line (blue) vs. 1A1 cell line (black). […] 510 is a control compound that lacks a coordinating group. […] All other conditions are following CYP1B1 induction with benzo[a]pyrene. Spheroid shown in inset.
# CYP1B1 [5] = target: T1, CYP1B1; assay: CYP1B1 degradation on binding (FIG. 2C); assay type: cell-based; conditions: 0.1 μM
# From the text: as §2
smiles,measurement,setting,value
N#CCOc1ccc(-c2nc(OCC#N)c3ccccc3n2)cc1 [GL547],IC50,"CYP1B1 [1]; Table 1, read-out: CYP1B1 IC50",24 pM
same,IC50,"CYP1B1 [1]; Table 3, read-out: IC50 1B1",< 250 pM
same,activity of CYP1A1 over 24 h,"CYP1A1; 1 μM, 24 h, FIG. 2D",no loss in activity
same,IC50,"CYP1A1; Table 1, read-out: CYP1A1 IC50",1.4 µM
same,IC50,"CYP1A1; Table 3, read-out: IC50 1A1",3.73 µM and 2.69 µM
same,IC50,"[2]; Table 1, read-out: hLM IC50",4 µM
same,IC50,"[2]; Table 3, read-out: IC50 pHLM",3 µM
same,IC50 at 72 h,[3],> 10 µM
same,increase in cell death,MCF7 tumor spheroids,75%
same,time CYP activity is suppressed after wash out,CYP1B1 [4],> 10 h
same,effect of binding on CYP1B1 protein,CYP1B1 [5],causes degradation of CYP1B1

# — patent US20210246109A1, “POTENT AND SELECTIVE INHIBITORS OF CYTOCHROME P450” (University of Kentucky Research Foundation, priority 2020, published 2021)
